{
  "source": "patent US10563171B2",
  "about": "“Method for inducing differentiation of pluripotent stem cells into germ cells” (Kyoto University, priority 2015, dated 2020)",
  "key": {"iMeLCs": {"test_system": "iMeLCs", "experiment": "Induction of BTAG positive cells (hPGCLCs) from iMeLCs in floating aggregates", "assay_type": "cell-based, human", "details": "for role in induction of BTAG positive cells from iMeLCs: combination of BMP4, LIF, SCF and EGF changed, FIG. 11A-D", "description": "(§1) Initial mesoderm-like cells (iMeLCs) were induced by seeding hiPSCs maintained in StemFit™ in a 12 well plate coated with human plasma fibronectin (Millipore, FC010) at 1.0-2.0×10^5 cells per well in GK15 medium [GMEM containing 15% KSR, 0.1 mM NEAA, 2 mM L-glutamine, 1 mM sodium pyruvate and 0.1 mM 2-mercaptoethanol (Life Technologies)] containing 50 ng/ml activin A, 3 μM CHIR99021 and 10 μM ROCK inhibitor (Y-27632; Wako Pure Chemical Industries). The hiPSCs were induced by seeding in a low-cell-binding V-bottom 96 wellplate (Thermo, 81100574) at 3.0×10^3 cells per well in GK15 added with 1000 U/ml LlF (Millipore, #LIF1005), 200 ng/ml BMP 4,100 ng/ml SCF (R&D Systems, 455-MC), 50 ng/ml EGF (R&D Systems, 236-EG), and 10 μM ROCK inhibitor. For investigation of conditions and induction of iMeLCs or hPGCLC, PD173074 (StemGent, #04-0008) or LDN193189 (StemGent, #04-0074) was respectively added. Other than the above, WNT3A (R&D Systems, 5036-WN) was used instead of CHIR99021, and BMP2 (R&D Systems, 355-BM), BMP7 (R&D Systems, 354-BP), or BMP8A (R&D Systems, 1073-BP) was used instead of BMP4.\n(§2) Floating aggregates containing hPGCLCs were separated by treating with 0.05% Trypsin-EDTA/PBS at 37° C. for 10 min. After washing with PBS containing FBS and 0.1% BSA, the cell suspension was filtered by a cell strainer (BD Biosciences) and centrifuged to remove cell aggregates. The collected cells were suspended in FACS buffer (0.1% BSA in PBS) and analyzed by a flow cytometer (ARIA III; BD Biosciences). For the analysis of hPGCLCs or hiPSCs, the separated cells were stained with APC-conjugated anti-human CD326 (EpCAM), BV421-conjugated anti-human/mouse CD49f, PE-conjugated anti-TRA-1-60, or FITC-conjugated anti-SSEA-4. Furthermore, intracellular staining using Alexa fluor 647-conjugated anti-OCT3/4, Alexa Fluor 647-conjugated anti-NANOG or V450-conjugated anti-SOX2 was performed using BD cytofix/Cytoferm Fixation/Permeabilization kit (BD, 554714) and according to the Manufacturer's instructions."}, "BTAG 585B1-868 hiPSCs": {"test_system": "BTAG 585B1-868 hiPSCs", "experiment": "Induction of iMeLCs from hiPSCs having induction capacity into BTAG positive cells (FACS of BTAG(+) cells)", "assay_type": "cell-based, human", "description": "as §1, §2"}},
  "data": [
    {"molecule": "LIF: leukemia inhibitory factor", "values": [
      {"measurement": "role in induction of BTAG positive cells from iMeLCs", "setting": "iMeLCs", "value": "maintaining rather than inducing"}
    ]},
    {"molecule": "SCF: stem cell factor", "values": [
      {"measurement": "role in induction of BTAG positive cells from iMeLCs", "setting": "iMeLCs", "value": "maintaining rather than inducing"}
    ]},
    {"molecule": "CCN(CC)CCCCNc1ncc2cc(-c3cc(OC)cc(OC)c3)c(NC(=O)NC(C)(C)C)nc2n1", "note": "[PD173074, reference compound]", "values": [
      {"measurement": "number of BTAG-positive cells per cell aggregate", "setting": "BTAG 585B1-868 hiPSCs; FGFR signaling inhibited during induction of iMeLCs, FIG. 10G, 10H", "value": "increased"}
    ]},
    {"molecule": "bFGF: basic fibroblast growth factor", "values": [
      {"measurement": "effect of signaling on iMeLCs induction", "setting": "BTAG 585B1-868 hiPSCs; added during induction of iMeLC, FIG. 10D, 10E", "value": "acts negatively"}
    ]},
    {"molecule": "EGF: epithelial cell growth factor", "values": [
      {"measurement": "role in induction of BTAG positive cells from iMeLCs", "setting": "iMeLCs", "value": "maintaining rather than inducing"}
    ]},
    {"molecule": "Cc1c[nH]c(-c2cnc(NCCNc3ccc(C#N)cn3)nc2-c2ccc(Cl)cc2Cl)n1", "note": "[CHIR, 6-[2-[4-(2,4-Dichlorophenyl)-5-(4-methyl-1H-imidazol-2-yl)pyrimidin-2-ylamino]ethylamino]pyridine-3-carbonitrile, reference compound]", "values": [
      {"measurement": "concentration essential for the induction of iMeLCs having induction capacity into BTAG positive cells", "setting": "BTAG 585B1-868 hiPSCs; concentration changed during induction of iMeLC from hiPSCs, FIG. 10C", "value": "3 to 5", "unit": "µM"}
    ]},
    {"molecule": "c1ccc2c(-c3cnn4cc(-c5ccc(N6CCNCC6)cc5)cnc34)ccnc2c1", "note": "[LDN193189, reference compound]", "values": [
      {"measurement": "effect of BMP4 on BTAG positive cell induction in presence of ALK2/3 inhibitor", "setting": "iMeLCs; FIG. 11B", "value": "blocked"}
    ]}
  ]
}
